# *1 amine or outer side, *2 acyl side, *3 side chain or, on linkers, in order; H or OH if unused. Where a SMILES comes first, the peptide text is derived from it. Side-chain parts run from the residue outwards. [ ]: non-standard residue; d: D form. The star is where a group is joined. C18 diacid = O=C(O)CCCCCCCCCCCCCCCCC(=O)*; γGlu = O=C(O)[C@H](CCC(=O)[*:2])N[*:1]; Nle = CCCC[C@H](N)C(=O)O; AEEA = NCCOCCOCC(=O)O; Aib = CC(C)(N)C(=O)O
# Molecular target: T1, human GIP receptor (Homo sapiens, UniProt P48546)
# T1 construct: expressed in transfected cells; host or cells: BHK (parent line BHKTS13), BHK CRE luc2P hGIPR clone #5
# T1 sequence (P48546 22-466): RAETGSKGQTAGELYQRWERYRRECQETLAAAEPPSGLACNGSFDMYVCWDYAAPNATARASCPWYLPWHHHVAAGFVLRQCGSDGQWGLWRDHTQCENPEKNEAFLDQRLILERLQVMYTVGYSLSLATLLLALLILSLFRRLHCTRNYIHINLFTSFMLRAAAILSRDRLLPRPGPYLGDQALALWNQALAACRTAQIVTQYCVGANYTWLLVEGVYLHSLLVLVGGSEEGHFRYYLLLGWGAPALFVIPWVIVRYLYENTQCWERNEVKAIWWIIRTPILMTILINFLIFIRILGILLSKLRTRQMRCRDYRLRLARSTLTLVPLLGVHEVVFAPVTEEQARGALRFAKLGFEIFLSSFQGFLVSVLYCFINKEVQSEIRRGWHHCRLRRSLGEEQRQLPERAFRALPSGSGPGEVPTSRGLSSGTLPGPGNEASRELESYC
# Test: In vitro potency (CRE luciferase; whole cells), BHK CRE luc2P hGIPR
# Type: cell-based
# Conditions: 0.2% HSA
# Description: In Vitro Potency (CRE Luciferase; Whole Cells)
# The in vitro potency is the measure of human GIP, GLP-1 or glucagon receptor activation, respectively, in a whole cell assay.
# In vitro potency was determined by measuring the response of the human GIP, GLP-1 or glucagon receptor in a reporter gene assay in individual cell lines. […] When the respective receptor is activated it results in the production of cAMP, which in turn results in the luciferase protein being expressed. When assay incubation is completed the luciferase substrate (luciferin) is added and the enzyme converts luciferin to oxyluciferin to produce bioluminescence. The luminescence is measured as the readout for the assay.
# The cells were derived from a clone containing the CRE luciferase element and were established by further transfection with the respective receptor to obtain the current clone.
# The cells were cultured at 5% CO2 in Cell Culture Medium. They were aliquoted and stored in liquid nitrogen. The cells were kept in passage and were seeded out the day before each assay.
# The Assay Buffer consisted of 1% ovalbumin and 0.1% Pluronic F-68 in Assay Medium with the addition of human serum albumin at twice the indicated concentrations.
# 1) Cells were plated at 5000 cells/well and incubated overnight.
# 2) Cells were washed three times in PBS.
# 3) Assay Medium (50 μl aliquot) with or without serum albumin was added to each well in the assay plate.
# 4) Stocks of the test compounds and reference compounds were diluted to a concentration of 0.2 μM in Assay Buffer. […] 8) The cells were washed three times with PBS plus some liquid in each well. 9) A 100 μl aliquot of steadylite plus reagent was added to each well of the assay plate (reagent was light sensitive). 10) Each assay plate was covered with aluminum foil to protect it from light and shaken for 30 min at room temperature. 11) Each assay plate was read in a microtiter plate reader. Calculations and Results
# The data from the microtiter plate reader was transferred to GraphPad Prism software. The software performs a non-linear regression (log(agonist) vs response).
# A minimum of two replicates was measured for each sample. The reported values are averages of the replicates.
row,SMILES,EC50
1,"CCCC[C@H](NC(=O)[C@H](C)NC(=O)[C@@H](NC(=O)[C@H](CO)NC(=O)[C@H](Cc1ccc(O)cc1)NC(=O)[C@H](CC(=O)O)NC(=O)[C@H](CO)NC(=O)[C@@H](NC(=O)[C@H](Cc1ccccc1)NC(=O)[C@@H](NC(=O)CNC(=O)[C@H](CCC(=O)O)NC(=O)C(C)(C)NC(=O)[C@@H](N)Cc1ccc(O)cc1)[C@@H](C)O)[C@@H](C)CC)[C@@H](C)CC)C(=O)N[C@@H](CC(=O)O)C(=O)N[C@@H](C)C(=O)N[C@H](C(=O)N[C@@H](CCCNC(=N)N)C(=O)N[C@@H](CCC(N)=O)C(=O)N[C@@H](CCC(N)=O)C(=O)N[C@@H](CC(=O)O)C(=O)N[C@@H](Cc1ccccc1)C(=O)N[C@H](C(=O)N[C@@H](CCCCNC(=O)CC[C@H](NC(=O)CC[C@H](NC(=O)CC[C@H](NC(=O)CCCCCCCCCCCCCCCCC(=O)O)C(=O)O)C(=O)O)C(=O)O)C(=O)N[C@@H](Cc1c[nH]c2ccccc12)C(=O)N[C@@H](CC(C)C)C(=O)N[C@@H](CC(C)C)C(=O)N[C@@H](C)C(=O)N[C@@H](CCC(N)=O)C(=O)N[C@@H](CCCCN)C(=O)NCC(=O)O)C(C)C)[C@@H](C)CC [Compound 13, N{Epsilon-24}-[(4S)-4-carboxy-4-[[(4S)-4-carboxy-4-[[(4S)-4-carboxy-4-(17-carboxyheptadecanoylamino)butanoyl]amino]butanoyl]amino]butanoyl]-[Aib2,Nle14,Ala16,Arg18,Lys24]-hGIP(1-31)] (H-Y[Aib]EGTFISDYSIA[Nle]DAIRQQDFVK([γGlu-γGlu-γGlu-C18 diacid])WLLAQKG-OH; N-terminus and C-terminus assumed)",0.0725 nM
2,"CCCC[C@H](NC(=O)[C@H](C)NC(=O)[C@@H](NC(=O)[C@H](CO)NC(=O)[C@H](Cc1ccc(O)cc1)NC(=O)[C@H](CC(=O)O)NC(=O)[C@H](CO)NC(=O)[C@@H](NC(=O)[C@H](Cc1ccccc1)NC(=O)[C@@H](NC(=O)CNC(=O)[C@H](CCC(=O)O)NC(=O)[C@H](C)NC(=O)[C@@H](Cc1ccc(O)cc1)NC(C)=O)[C@@H](C)O)[C@@H](C)CC)[C@@H](C)CC)C(=O)N[C@@H](CC(=O)O)C(=O)N[C@@H](CCCCN)C(=O)N[C@H](C(=O)N[C@@H](CCCNC(=N)N)C(=O)N[C@@H](CCC(N)=O)C(=O)N[C@@H](CCC(=O)O)C(=O)N[C@@H](CC(=O)O)C(=O)N[C@@H](Cc1ccccc1)C(=O)N[C@H](C(=O)N[C@@H](CCCCNC(=O)COCCOCCNC(=O)COCCOCCNC(=O)CC[C@H](NC(=O)CCCCCCCCCCCCCCCCC(=O)O)C(=O)O)C(=O)N[C@@H](Cc1c[nH]c2ccccc12)C(=O)N[C@@H](CC(C)C)C(=O)N[C@@H](CC(C)C)C(=O)N[C@@H](C)C(=O)N[C@@H](CCC(N)=O)C(=O)N[C@@H](CCCCN)C(=O)NCC(=O)O)C(C)C)[C@@H](C)CC [Compound 16, N{1}-acetyl,N{Epsilon-24}-[2-[2-[2-[[2-[2-[2-[[(4S)-4-carboxy-4-(17-carboxy-heptadecanoylamino)butanoyl]amino]ethoxy]ethoxy]acetyl]amino]ethoxy]ethoxy]acetyl]-[D-Tyr1,Nle14,Arg18,Glu20,Lys24]-hGIP(1-31)]",0.025 nM
3,"CCCC[C@H](NC(=O)[C@H](C)NC(=O)[C@@H](NC(=O)[C@H](CO)NC(=O)[C@H](Cc1ccc(O)cc1)NC(=O)[C@H](CC(=O)O)NC(=O)[C@H](CO)NC(=O)[C@@H](NC(=O)[C@H](Cc1ccccc1)NC(=O)[C@@H](NC(=O)CNC(=O)[C@H](CCC(=O)O)NC(=O)[C@H](C)NC(=O)[C@H](Cc1ccc(O)cc1)NC(C)=O)[C@@H](C)O)[C@@H](C)CC)[C@@H](C)CC)C(=O)N[C@@H](CC(=O)O)C(=O)N[C@@H](CCCCN)C(=O)N[C@H](C(=O)N[C@@H](CCCNC(=N)N)C(=O)N[C@@H](CCC(N)=O)C(=O)N[C@@H](CCC(N)=O)C(=O)N[C@@H](CC(=O)O)C(=O)N[C@@H](Cc1ccccc1)C(=O)N[C@H](C(=O)N[C@@H](CCCCNC(=O)CC[C@H](NC(=O)CC[C@H](NC(=O)CC[C@H](NC(=O)CCCCCCCCCCCCCCCCC(=O)O)C(=O)O)C(=O)O)C(=O)O)C(=O)N[C@@H](Cc1c[nH]c2ccccc12)C(=O)N[C@@H](CC(C)C)C(=O)N[C@@H](CC(C)C)C(=O)N[C@@H](C)C(=O)N[C@@H](CCC(N)=O)C(=O)N[C@@H](CCCCN)C(=O)NCC(=O)O)C(C)C)[C@@H](C)CC [Compound 18, N{1}-acetyl,N{Epsilon-24}-[(4S)-4-carboxy-4-[[(4S)-4-carboxy-4-[[(4S)-4-carboxy-4-(17-carboxyheptadecanoylamino)butanoyl]amino]butanoyl]amino]butanoyl]-[Nle14,Arg18,Lys24]-hGIP(1-31)]",0.546 nM

# Further compounds by falling EC50, results first:
row,EC50,SMILES
1,0.158 nM,"CCCC[C@H](NC(=O)[C@H](C)NC(=O)[C@@H](NC(=O)[C@H](CO)NC(=O)[C@H](Cc1ccc(O)cc1)NC(=O)[C@H](CC(=O)O)NC(=O)[C@H](CO)NC(=O)[C@@H](NC(=O)[C@H](Cc1ccccc1)NC(=O)[C@@H](NC(=O)CNC(=O)[C@H](CCC(=O)O)NC(=O)C(C)(C)NC(=O)[C@@H](N)Cc1ccc(O)cc1)[C@@H](C)O)[C@@H](C)CC)[C@@H](C)CC)C(=O)N[C@@H](CC(=O)O)C(=O)N[C@@H](CCCCN)C(=O)N[C@H](C(=O)N[C@@H](Cc1c[nH]cn1)C(=O)N[C@@H](CCC(N)=O)C(=O)N[C@@H](CCC(=O)O)C(=O)N[C@@H](CC(=O)O)C(=O)N[C@@H](Cc1ccccc1)C(=O)N[C@H](C(=O)N[C@@H](CCCCNC(=O)CC[C@H](NC(=O)CC[C@H](NC(=O)CC[C@H](NC(=O)CC[C@H](NC(=O)CCCCCCCCCCCCCCCCC(=O)O)C(=O)O)C(=O)O)C(=O)O)C(=O)O)C(=O)N[C@@H](Cc1c[nH]c2ccccc12)C(=O)N[C@@H](CC(C)C)C(=O)N[C@@H](CC(C)C)C(=O)N[C@@H](C)C(=O)N[C@@H](CCC(N)=O)C(=O)N[C@@H](CCCCN)C(=O)NCC(=O)O)C(C)C)[C@@H](C)CC [Compound 20, N{Epsilon-24}-[(4S)-4-carboxy-4-[[(4S)-4-carboxy-4-[[(4S)-4-carboxy-4-[[(4S)-4-carboxy-4-(17-carboxyheptadecanoylamino)butanoyl]amino]butanoyl]amino]butanoyl]-amino]butanoyl]-[Aib2,Nle14,Glu20,Lys24]-hGIP(1-31)] (H-Y[Aib]EGTFISDYSIA[Nle]DKIHQEDFVK([γGlu-γGlu-γGlu-γGlu-C18 diacid])WLLAQKG-OH; N-terminus and C-terminus assumed)"
2,0.0915 nM,"CC[C@H](C)[C@H](NC(=O)[C@H](CO)NC(=O)[C@H](Cc1ccc(O)cc1)NC(=O)[C@H](CC(=O)O)NC(=O)[C@H](CO)NC(=O)[C@@H](NC(=O)[C@H](Cc1ccccc1)NC(=O)[C@@H](NC(=O)CNC(=O)[C@H](CCC(=O)O)NC(=O)[C@H](C)NC(=O)[C@@H](Cc1ccc(O)cc1)NC(C)=O)[C@@H](C)O)[C@@H](C)CC)C(=O)N[C@@H](C)C(=O)N[C@@H](CC(=O)O)C(=O)N[C@@H](CC(=O)O)C(=O)N[C@@H](CCCCN)C(=O)N[C@H](C(=O)N[C@@H](CCCNC(=N)N)C(=O)N[C@@H](CCC(N)=O)C(=O)N[C@@H](CCC(=O)O)C(=O)N[C@@H](CC(=O)O)C(=O)N[C@@H](Cc1ccccc1)C(=O)N[C@H](C(=O)N[C@@H](CCCCNC(=O)COCCOCCNC(=O)COCCOCCNC(=O)CC[C@H](NC(=O)CCCCCCCCCCCCCCCCC(=O)O)C(=O)O)C(=O)N[C@@H](Cc1c[nH]c2ccccc12)C(=O)N[C@@H](CC(C)C)C(=O)N[C@@H](CC(C)C)C(=O)N[C@@H](C)C(=O)N[C@@H](CCC(N)=O)C(=O)N[C@@H](CCCCN)C(=O)NCC(=O)O)C(C)C)[C@@H](C)CC [Compound 19, N{1}-acetyl,N{Epsilon-24}-[2-[2-[2-[[2-[2-[2-[[(4S)-4-carboxy-4-(17-carboxyheptadecanoylamino)butanoyl]amino]ethoxy]ethoxy]acetyl]amino]ethoxy]ethoxy]acetyl]-[D-Tyr1,Asp14,Arg18,Glu20, Lys24]-hGIP(1-31)] (Ac-[dY]AEGTFISDYSIADDKIRQEDFVK([AEEA-AEEA-γGlu-C18 diacid])WLLAQKG-OH; C-terminus assumed)"

# Source: US10604555B2, “GIP derivatives and uses thereof” (priority 2018, dated 2020)
